Consider five compounds from patent publication US20250282798A1, “HETEROARYL-SUBSTITUTED BICYCLIC COMPOUND AND USE THEREOF” (Medshine Discovery Inc., priority 2022, published 2025).

The test system of one data set is MDR1 (P-glycoprotein). Description: Permeability evaluation in MDR1-MDCK II cells. In kind it is in vitro ADME. To be noted: dog. On the procedure:
Cell line: The MDR1-MDCK II cell line authorized by Piet Borst's laboratory at the Netherlands Cancer Research Institute was used in this assay as an in vitro model for the permeability evaluation assay. The cells were inoculated in a Transwell-96 well cell plate at a density of 2.3×10^5 cells/cm^2, and cultured in a carbon dioxide incubator for 4-7 days before use in the transport assay.
The administration concentration of the test sample was 2.00 μM.
Test direction and number of parallel samples: bidirectional A-B and B-A, 2 parallels
Transport buffer (TB): HBSS solution containing 10 mM HEPES (pH 7.40±0.05)
Incubation conditions: 37±1° C., 5% CO2, incubated for 150 minutes
Control compounds: Nadolol and metoprolol were used as low-permeability and high-permeability control compounds. Digoxin was used as a substrate of P-glycoprotein. The administration concentration of nadolol and metoprolol was 2.00 μM, and the administration concentration of digoxin was 10.0 μM.
After the transport assay, the integrity of the MDR1-MDCK II cell layer was assayed by the Lucifer Yellow Rejection Assay. The remaining solution in the apical and basolateral wells was removed. 75 μL of TB containing 100 μM Lucifer Yellow was added to the apical well, and 250 μL of TB was added to the basolateral well. The cell plate was incubated in a cell culture incubator at 37±1° C., 5% CO2 and saturated humidity for 30 minutes. Then, 20 μL of sample was taken from the apical well and mixed with 60 μL of TB, and 80 μL of sample was taken from the basolateral well. The relative fluorescence unit (RFU) was measured at 425/528 nm (excitation/emission) using a microplate reader.
In this assay, the sample analysis of the test samples and control compounds of nadolol, metoprolol, and digoxin was performed by liquid chromatography-tandem mass spectrometry (LC-MS/MS). The retention time of the analytes and internal standards, chromatogram acquisition, and chromatogram integration were processed using the software Analyst (Sciex, Framingham, MA, USA). The sample analysis was semi-quantitatively determined using the peak area of analyte and the peak area of internal standard.
VR is the volume of the receiver end solution (0.075 mL for side A, and 0.25 mL for side B); Area is the relative surface area of the cell monolayer (0.0804 cm2); Time is the incubation time (9000 s); C0 is the peak area ratio of the compound at the administration end; VD is the volume of the administration end (0.075 mL for side A, and 0.25 mL for side B); CD and CR are the peak area ratios of the compound at the administration end and the receiver end, respectively.

The next data set has as its target human GLK (Homo sapiens (Human), UniProt Q8IVH8). Briefly: Kinase activity assay using ADP-Glo method, GLK. In kind it is biochemical. To be noted: GLK enzyme concentration 8 nM; ATP 20 μM. On the procedure:
The IC50 value was assayed by the kinase activity assay using ADP-Glo method to evaluate the inhibitory ability of a test compound on human GLK.
(§1) Enzyme buffer conditions: 50 mM Hepes (pH 7.5), 10 mM MgCl2, 1 mM EGTA, 0.01% Brij35, 2 mM DTT.
Preparation of the mixture of kinase and substrate: the concentration of GLK in the reaction solution was 8 nM, the concentration of ATP was […], and the concentration of MBP was 0.05 mg/mL.
(§2) Assay steps: A compound was diluted 4-fold with DMSO in a dilution plate, with a final initial concentration of […] and 10 concentration gradient points. The compound was diluted 50-fold into the kinase reaction buffer, and the mixture was shaken on a shaker for 20 minutes. The kinase was prepared with the enzyme reaction buffer. 2 μL of kinase was added to each well of a reaction plate. 1 μL of the diluted compound in the buffer was added to each well. The plate was sealed with a sealing film, centrifuged at 1000 g for 30 seconds, and placed at room temperature for 10 minutes. The mixed solution of ATP/MBP was prepared with the enzyme reaction buffer. 2 μL of the mixed solution of ATP/MBP was added to the reaction plate. The plate was sealed with a sealing film, and centrifuged at 1000 g for 30 seconds. The mixture in the plate was reacted at room temperature for 60 minutes. 4 μL of ADP-Glo was transferred to the 384 reaction plate, and centrifuged at 1000 rpm/min for 1 min. The plate was incubated at 25° C. for 40 min. 8 μL of detection solution was transferred to the 384 reaction plate, and centrifuged at 1000 rpm/min for 1 min. The plate was incubated at 25° C. for 40 min. The RLU (relative luminescence unit) signal was read with a BMG microplate reader, and the signal intensity was used to characterize the activity of the kinase.
(§3) The kinase activity data were expressed as the comparison of the kinase activity of a group with a test compound and the kinase activity of the blank group (containing only DMSO). The IC50 value was obtained by curve fitting using Prism software (GraphPad7.0).
On the technique in general: ADP-Glo turns the ADP formed in a reaction into a luminescent signal.

Data set [1] can be described thus: In vitro metabolic stability in human liver microsomes. In kind it is in vitro ADME. To be noted: 1 μM compound, 0.5 mg/mL protein. The protocol:
The in vitro metabolic stability of the compounds of the present disclosure in human was investigated by the metabolic stability in human liver microsomes.
Assay conditions: 1 μM of a compound was incubated with human liver microsomes supplemented with NADPH regeneration system at 37° C. for a certain period of time up to 60 minutes. The concentration of the compound in the resulting sample was assayed by LC-MS/MS method.
Assay procedure: 96-well incubation plates were named T0, T5, T15, T30, T45, T60, Blank60 and NCF60, respectively. The reaction time corresponding to the incubation plates were 0, 5, 15, 30, 45 and 60 minutes, respectively. No test sample or control compound was added to the Blank60 plate, and samples were taken after 60 minutes of incubation. Potassium phosphate buffer was used instead of NADPH regeneration system solution in the NCF60 plate, and the plate was incubated for 60 minutes. All the samples of the time points were from a single well.
5 μL of a test sample or control sample working solution and 100 μL of microsome working solution (the concentration of liver microsome protein was 0.5 mg/mL) were added to the T0, T5, T15, T30, T45, T60 and NCF60 plates, respectively. Only microsome working solution was added to the Blank60 plate. Then, the Blank60, T5, T15, T30, T45 and T60 plates, except TO and NCF60 plates, were placed in a 37° C. water bath, and preincubated for about 10 minutes.
180 μL of stop solution (the stop solution was a solution of tolbutamide (100 ng/mL) in acetonitrile and methanol (95:5, V/V)) was firstly added to the sample of TO plate, and then the NADPH regeneration system working solution was added.
50 μL of potassium phosphate buffer was added to each well of the NCF60 plate, and the plate was incubated for 60 minutes.
After the pre-incubation of Blank60, T5, T15, T30, T45 and T60 plates, 44 μL of NADPH regeneration system working solution was added to each sample well to initiate the reaction. Therefore, for the sample wells containing a test sample or control sample working solution, the final concentration of the reaction was […], the concentration of liver microsomes was 0.5 mg/mL, and the final concentrations of DMSO and acetonitrile in the reaction system were 0.01% (v/v) and 0.99% (v/v), respectively.
After being incubated for an appropriate time (e.g., 5, 15, 30, 45, and 60 min), 180 μL of stop solution was added to each well of the test sample and control sample of Blank60, T5, T15, T30, T45, T60, and NCF60 plates, respectively, to terminate the reaction.
All sample plates were shaken and centrifuged for 10 min. 80 μL of the supernatant of a test sample was taken and diluted into 240 μL of a mixture of acetonitrile and water (1:9, V/V) containing 0.1% formic acid for LC-MS/MS analysis.
By calculating the corresponding time point and the remaining percentage of a compound, the half-life T1/2 and clearance rate CLint(liver) of the compound in human liver microsome metabolism were obtained.
Background: Liver microsomes are a subcellular fraction often used to study metabolism.

Data set [2] in a line: Pharmacokinetic evaluation in mice. In kind it is in vivo, female Balb/c mice. The protocol:
Assay procedure: 10% DMSO+20% PEG400+70% (30% SBE-P3-CD aqueous solution) (the trifluoroacetate of compound 4, the trifluoroacetate of compound 9) or 10% SBE-β-CD aqueous solution (the trifluoroacetate of compound 24-3) was injected into female Balb/c mice (overnight fasting, 7-9 weeks old) via the tail vein. Female Balb/c mice (overnight fasting, 7-9 weeks old) were gavaged with 10% DMSO+20% PEG400+70% (30% SBE-β-CD aqueous solution (the trifluoroacetate of compound 4, the trifluoroacetate of compound 9) or 10% SBE-P3-CD aqueous solution (the trifluoroacetate of compound 24-3) at dosages shown in Table 7. About 30 μL of blood of the two groups of animals was collected from the jugular vein at 0.0833, 0.25, 0.5, 1.0, 2.0, 4.0, 8.0, and 24 hours after the administration, and from the tail vein at 0.25, 0.5, 1.0, 2.0, 4.0, 8.0, and 24 hours after the administration, respectively, and placed in an anticoagulant tube with EDTA-K2 added. The tube was centrifuged to separate the plasma. The plasma concentration was assayed by LC-MS/MS. The relevant pharmacokinetic parameters were calculated with WinNonlin™ Version 6.3 (Pharsight, Mountain View, CA) pharmacokinetic software using the non-compartmental linear logarithmic trapezoidal method.

Data set [3] has as its target T1, human HPK1 (Homo sapiens (Human), UniProt Q92918). Briefly: 33P isotope-labeled kinase activity assay (Method 1). Format: biochemical. To be noted: HPK1 enzyme concentration 8.1 nM; ATP concentration 15 μM. The protocol:
Method 1: The IC50 value was assayed by ^33P isotope-labeled kinase activity assay to evaluate the inhibitory ability of a test compound on human HPK1.
as §1
as §2, with “3-fold” for “4-fold”, “4 μL of ADP-Glo was transferred to the 384 reaction plate, and centrifuged at 1000 rpm/min for 1 min.” left out, “8 μL of detection solution was transferred to the 384 reaction plate, and centrifuged at 1000 rpm/min for 1 min.” left out

Data set [4] concerns the target T1, human HPK1. Description: Kinase activity assay using ADP-Glo method (Method 2). Format: biochemical. To be noted: HPK1 enzyme concentration 0.1 nM; ATP concentration 10 μM. On the procedure: Method 2: The IC50 value was assayed by the kinase activity assay using ADP-Glo method to evaluate the inhibitory ability of a test compound on human HPK1.
Enzyme buffer conditions: 50 mM Hepes (pH 7.5), 10 mM MgCl2, 1 mM EGTA, 0.01% Brij35, 2 mM DTT. […]
as §2, with “4 μL of ADP-Glo was transferred to the 384 reaction plate, and centrifuged at 1000 rpm/min for 1 min.” left out, “8 μL of detection solution was transferred to the 384 reaction plate, and centrifuged at 1000 rpm/min for 1 min.” left out
as §3

Setting [5] is: female, Balb/c, mouse, plasma, IV 2 mg/kg.
The mark [6] stands for this setting: female, Balb/c, mouse, plasma, PO 75 mg/kg.

Chain of human GLK (Q8IVH8 whole entry): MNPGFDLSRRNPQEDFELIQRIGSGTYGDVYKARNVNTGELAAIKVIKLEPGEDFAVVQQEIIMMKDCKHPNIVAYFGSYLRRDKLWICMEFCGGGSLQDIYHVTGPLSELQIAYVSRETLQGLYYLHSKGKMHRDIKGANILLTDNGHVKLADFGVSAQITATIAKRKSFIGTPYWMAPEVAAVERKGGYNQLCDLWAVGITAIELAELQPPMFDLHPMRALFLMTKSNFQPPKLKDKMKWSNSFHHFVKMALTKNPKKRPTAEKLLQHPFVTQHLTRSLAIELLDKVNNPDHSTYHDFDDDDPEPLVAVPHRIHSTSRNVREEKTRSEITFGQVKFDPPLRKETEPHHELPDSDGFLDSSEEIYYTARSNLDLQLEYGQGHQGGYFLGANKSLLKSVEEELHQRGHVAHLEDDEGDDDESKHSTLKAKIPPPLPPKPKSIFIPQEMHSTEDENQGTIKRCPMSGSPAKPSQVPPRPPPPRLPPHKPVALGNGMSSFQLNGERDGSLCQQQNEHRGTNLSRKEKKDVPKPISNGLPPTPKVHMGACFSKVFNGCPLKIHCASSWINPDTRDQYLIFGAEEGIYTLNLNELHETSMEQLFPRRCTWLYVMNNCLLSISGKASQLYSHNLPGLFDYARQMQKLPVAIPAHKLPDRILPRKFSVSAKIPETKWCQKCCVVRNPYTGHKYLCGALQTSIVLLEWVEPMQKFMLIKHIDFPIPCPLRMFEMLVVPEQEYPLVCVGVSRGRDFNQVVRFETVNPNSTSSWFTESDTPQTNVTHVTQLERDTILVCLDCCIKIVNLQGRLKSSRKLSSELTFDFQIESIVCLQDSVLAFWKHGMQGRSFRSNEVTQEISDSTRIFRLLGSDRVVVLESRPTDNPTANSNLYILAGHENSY
T1 sequence (Q92918 whole entry): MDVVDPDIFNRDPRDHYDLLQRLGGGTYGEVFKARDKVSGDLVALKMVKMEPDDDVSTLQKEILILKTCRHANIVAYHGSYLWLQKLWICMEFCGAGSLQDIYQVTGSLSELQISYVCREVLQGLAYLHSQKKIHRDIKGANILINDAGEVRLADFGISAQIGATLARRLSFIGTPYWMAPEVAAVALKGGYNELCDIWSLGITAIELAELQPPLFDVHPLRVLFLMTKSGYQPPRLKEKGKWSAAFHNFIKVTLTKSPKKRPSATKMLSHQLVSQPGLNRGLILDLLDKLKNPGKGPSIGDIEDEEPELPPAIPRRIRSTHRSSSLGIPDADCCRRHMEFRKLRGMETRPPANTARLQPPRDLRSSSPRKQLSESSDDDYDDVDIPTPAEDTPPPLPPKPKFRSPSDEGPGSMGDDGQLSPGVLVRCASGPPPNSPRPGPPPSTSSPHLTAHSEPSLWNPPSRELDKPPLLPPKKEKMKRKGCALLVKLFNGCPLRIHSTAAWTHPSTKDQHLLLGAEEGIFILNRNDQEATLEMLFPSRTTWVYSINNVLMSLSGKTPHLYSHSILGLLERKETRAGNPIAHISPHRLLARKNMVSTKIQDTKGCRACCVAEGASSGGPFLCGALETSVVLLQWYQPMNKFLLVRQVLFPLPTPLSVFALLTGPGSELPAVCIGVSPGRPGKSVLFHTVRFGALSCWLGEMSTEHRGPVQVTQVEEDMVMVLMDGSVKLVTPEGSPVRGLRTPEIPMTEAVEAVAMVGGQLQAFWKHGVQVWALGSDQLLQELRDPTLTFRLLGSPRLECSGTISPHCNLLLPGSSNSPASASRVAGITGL

Take `Cn1ccc2c(-c3ncc(Nc4ccc5c(n4)OC[C@H]4COCCN54)c4c3CNC4=O)ccnc21` [Trifluoroacetate of compound 20]: in the data set with MDR1 (P-glycoprotein) (pH 7.4, 2.00 μM, 150 minutes), the Papp A→B – broadly, the apparent permeability from the apical to the basolateral side of a cell layer – at 150 min, 2 μM worked out at 4.61 ×10⁻⁶ cm/s; the Papp B→A (in general, the apparent permeability from the basolateral to the apical side of a cell layer) at 150 min, 2 μM stood at 22.5 ×10⁻⁶ cm/s; the efflux ratio (commonly the permeability from basolateral to apical divided by that in the opposite direction, in the common usage) at 150 min, 2 μM is 4.88. The Papp at 150 min, 2 μM with MDR1 (P-glycoprotein) (pH 7.4, class by Papp, read-out: Conclusion of the permeability) is 1 to 5.5 ×10⁻⁶ cm/s. Further, inhibition at human GLK was half-maximal at 198 nM (IC50). Moreover, in data set [1], the CLint scaled (usually a measure of how fast metabolising enzymes remove a compound, apart from limits set by blood flow) at 1 μM was determined as 63 mL/min/kg and the half-life – broadly, how long it takes for the measured level to halve – at 1 μM came to 20 min.

Take `CN1Cc2nc(Nc3ccc(-c4cnc5cc(F)ccn45)c4c3C(=O)NC4)ccc2N2CCOCC2C1` (stereo not drawn) [Trifluoroacetate of compound 16]: the half-maximal inhibitory concentration (IC50) (commonly the concentration that gives 50% inhibition) on human GLK was found to be 277 nM.

In data set [2] (IV 2 mg/kg), `O=C1NCc2c(-c3cnc4cc(F)ccn34)ccc(Nc3ccc4c(n3)OC[C@H]3COCCN43)c21` [Trifluoroacetate of compound 9] gave a Tlast of 2 h. In addition, the Tlast in data set [2] (PO 75 mg/kg) came out at 8 h. For the same compound, in data set [2] (setting [5]), the total exposure AUC(0-inf) (in general, total exposure, with the tail of the curve extrapolated) was determined as 1.95 µM·h; the AUC(0-t) (commonly the area under the concentration-time curve up to a stated or last time point) turned out to be 1.93 µM·h; the C0 was 6.06 µM; the clearance (usually the volume of plasma or blood freed of the substance per unit of time) was found to be 36 mL/min/kg. In data set [2] (setting [5]), this compound gave a half-life of 18 min. Further, the Vd in data set [2] (female, Balb/c, mouse, plasma, IV 2 mg/kg, read-out: Vdss) was determined as 0.8 L/kg. In data set [2] (setting [6]), the AUC(0-inf) was determined as 108 µM·h; the AUC(0-t) was 108 µM·h; the highest level (Cmax) was 39.8 µM; the Tmax (as a rule, the time from dosing to the highest level) stood at 48 min. The same compound showed a half-life in data set [2] (setting [6]) of 48 min. Further, in data set [2] (female, Balb/c, mouse, plasma, PO 75 mg/kg vs IV 2 mg/kg, calculated using AUC0-last), the bioavailability was 148%.

Consider `CN(C)Cc1cc(Nc2ncc(-c3cnc4cc(F)ccn34)c3c2C(=O)NC3)ccc1N1CCOCC1` [Compound 2], for which the IC50 on human HPK1 [3] was determined as 18 nM.

For `O=C1NCc2c(-c3cnc4cc(F)ccn34)ccc(Nc3ccc4c(n3)OC[C@H]3COCCN43)c21` [Compound 9], the IC50 against human HPK1 [4] was 0.7 nM; at human GLK, 115 nM. Besides, the intrinsic metabolic clearance (CLint scaled) at 1 μM in data set [1] is 39 mL/min/kg. Also, the half-life at 1 μM in data set [1] is 32 min.
